# Results reported in EP0908457B1, “3-(1,2-benzisothiazol- and isoxazol-5-Y1)-2,4(1H,3H)-pyrimidinedione or thione and 3-(1,2-benzisothiazol- and isoxazol-5-y1)-4(3H)-pyrimidinone or thione herbicidal agents” (BASF AKTIENGESELLSCHAFT, priority 1997, dated 1999).
# Columns and labels:
# [1] = system: Echinochloa oryzoides (Ard.) Fritsch.; assay: Preemergence weed control under flooded paddy conditions, ECHORC (Watergrass (Calif.)); type: in vivo; conditions: preemergence, flooded paddy, rated 3-4 weeks after treatment
# Cyperus iria = assay: Preemergence weed control under flooded paddy conditions, CYPIR (Rice Flatsedge); type: in vivo; conditions: preemergence, flooded paddy, rated 3-4 weeks after treatment
# [2] = system: Cyperus serotinus, Rottb.; assay: Preemergence weed control under flooded paddy conditions, CYPSE (Flatsedge); type: in vivo; conditions: preemergence, rated 3-4 weeks after treatment
# [3] = system: Monochoria vaginalis, Presl.; assay: Preemergence weed control under flooded paddy conditions, MOOVA (Monochoria); type: in vivo; conditions: preemergence, flooded paddy, rated 3-4 weeks after treatment
# Sagittaria pygmaea, L. = assay: Preemergence weed control under flooded paddy conditions, SAGPY (Arrowhead (Pygmaea)); type: in vivo; conditions: preemergence, flooded paddy, rated 3-4 weeks after treatment
# [4] = system: Oryza sativa, (L.) Tebonnet; assay: Rice tolerance to post-transplant applications under flooded paddy conditions (Example 187), ORYSAT (Rice, Tebonnet); conditions: rated 3-4 weeks after treatment
# Also: meaning of each grade not given here.
Structure (SMILES),"herbicidal effect rating, ECHORC ([1]; Rate 0.0320 kg/ha)","herbicidal effect rating, ECHORC ([1]; Rate 0.0620 kg/ha)","herbicidal effect rating, ECHORC ([1]; Rate 0.1250 kg/ha)","herbicidal effect rating, ECHORC ([1]; Rate 0.2500 kg/ha)","herbicidal effect rating, CYPIR (Cyperus iria; Rate 0.0320 kg/ha)","herbicidal effect rating, CYPIR (Cyperus iria; Rate 0.0620 kg/ha)","herbicidal effect rating, CYPIR (Cyperus iria; Rate 0.1250 kg/ha)","herbicidal effect rating, CYPIR (Cyperus iria; Rate 0.2500 kg/ha)","herbicidal effect rating, CYPSE ([2]; Rate 0.0620 kg/ha)","herbicidal effect rating, CYPSE ([2]; Rate 0.1250 kg/ha)","herbicidal effect rating, CYPSE ([2]; Rate 0.2500 kg/ha)","herbicidal effect rating, MOOVA ([3]; Rate 0.0320 kg/ha)","herbicidal effect rating, MOOVA ([3]; Rate 0.0620 kg/ha)","herbicidal effect rating, MOOVA ([3]; Rate 0.1250 kg/ha)","herbicidal effect rating, MOOVA ([3]; Rate 0.2500 kg/ha)","herbicidal effect rating, SAGPY (Sagittaria pygmaea, L.; Rate 0.0320 kg/ha)","herbicidal effect rating, SAGPY (Sagittaria pygmaea, L.; Rate 0.0620 kg/ha)","herbicidal effect rating, SAGPY (Sagittaria pygmaea, L.; Rate 0.1250 kg/ha)","herbicidal effect rating, SAGPY (Sagittaria pygmaea, L.; Rate 0.2500 kg/ha)",herbicidal effect rating ORYSAT ([4]; Rate 0.0320 kg/ha),also measured
"CNC(=O)COc1ccccc1-c1nsc2ccc(-n3c(=O)cc(C(F)(F)F)n(C)c3=O)cc12 [Example 562, Acetamide, 2-{o-{5-[3,6-dihydro-3-methyl-2,6-dioxo-4-(trifluoromethyl)-1(2H)-pyrimidinyl]-1,2-benzisothiazol-3-yl}phenoxy}-N-methyl-]",2.7,5.1,5.1,9.0,2.0,7.0,9.0,9.0,4.0,9.0,9.0,9.0,9.0,9.0,9.0,0.0,0.0,5.0,7.0,2.0,"herbicidal effect rating, ECHORC ([1]; Rate 0.5000 kg/ha): 9.0; herbicidal effect rating, CYPIR (Cyperus iria; Rate 0.5000 kg/ha): 3.0; herbicidal effect rating, CYPSE ([2]; Rate 0.5000 kg/ha): 9.0; herbicidal effect rating, MOOVA ([3]; Rate 0.5000 kg/ha): 9.0; herbicidal effect rating, SAGPY (Sagittaria pygmaea, L.; Rate 0.5000 kg/ha): 0.0; herbicidal effect rating ORYSAT ([4]; Rate 0.0620 kg/ha): 3.0; herbicidal effect rating ORYSAT ([4]; Rate 0.1250 kg/ha): 4.0; herbicidal effect rating ORYSAT ([4]; Rate 0.2500 kg/ha): 9.0; herbicidal effect rating ORYSAT ([4]; Rate 0.5000 kg/ha): 6.0"
"Cn1c(C(F)(F)F)cc(=O)n(-c2ccc3snc(-c4ccccc4OCC(N)=O)c3c2)c1=O [Example 563, Acetamide, 2-{o-{5-[3,6-dihydro-3-methyl-2,6-dioxo-4-(trifluoromethyl)-1(2H)-pyrimidinyl]-1,2-benzisothiazol-3-yl}phenoxy}-]",3.6,5.1,5.6,9.0,0.0,2.0,6.0,6.0,0.0,0.0,4.0,8.0,9.0,9.0,9.0,0.0,0.0,0.0,2.0,4.0,"herbicidal effect rating, ECHORC ([1]; Rate 0.5000 kg/ha): 9.0; herbicidal effect rating, CYPIR (Cyperus iria; Rate 0.5000 kg/ha): 9.0; herbicidal effect rating, CYPSE ([2]; Rate 0.0320 kg/ha): 0.0; herbicidal effect rating, CYPSE ([2]; Rate 0.5000 kg/ha): 0.0; herbicidal effect rating, MOOVA ([3]; Rate 0.5000 kg/ha): 9.0; herbicidal effect rating, SAGPY (Sagittaria pygmaea, L.; Rate 0.5000 kg/ha): 4.0; herbicidal effect rating ORYSAT ([4]; Rate 0.0620 kg/ha): 7.0; herbicidal effect rating ORYSAT ([4]; Rate 0.1250 kg/ha): 7.0; herbicidal effect rating ORYSAT ([4]; Rate 0.2500 kg/ha): 7.0; herbicidal effect rating ORYSAT ([4]; Rate 0.5000 kg/ha): 4.0"
"Cn1c(C(F)(F)F)cc(=O)n(-c2ccc3snc(/C=C/C(=O)c4ccccc4)c3c2)c1=O [Example 564, 2,4(1H,3H)-Pyrimidinedione, 1-methyl-3-[3-(3-oxo-3-phenylpropenyl)-1,2-benzisothiazol-5-yl]-6-(trifluoromethyl)-, (E)-]",4.0,4.0,5.0,7.0,6.0,6.0,7.0,9.0,0.0,0.0,4.0,9.0,9.0,9.0,9.0,0.0,0.0,0.0,0.0,0.0,"herbicidal effect rating, CYPSE ([2]; Rate 0.0320 kg/ha): 0.0; herbicidal effect rating ORYSAT ([4]; Rate 0.0620 kg/ha): 0.0; herbicidal effect rating ORYSAT ([4]; Rate 0.1250 kg/ha): 0.0; herbicidal effect rating ORYSAT ([4]; Rate 0.2500 kg/ha): 0.0"
"CON(C)C(=O)/C=C/c1nsc2ccc(-n3c(=O)cc(C(F)(F)F)n(C)c3=O)cc12 [Example 565, 1,2-Benzisothiazole-3-acrylamide, 5-[3,6-dihydro-3-methyl-2,6-dioxo-4-(trifluoromethyl)-1(2H)-pyrimidinyl]-N-methoxy-N-methyl-, (E)-]",0.0,0.0,0.0,0.0,0.0,3.0,6.0,6.0,0.0,0.0,0.0,9.0,9.0,9.0,9.0,0.0,0.0,0.0,0.0,0.0,"herbicidal effect rating, CYPSE ([2]; Rate 0.0320 kg/ha): 0.0; herbicidal effect rating ORYSAT ([4]; Rate 0.0620 kg/ha): 0.0; herbicidal effect rating ORYSAT ([4]; Rate 0.1250 kg/ha): 2.0; herbicidal effect rating ORYSAT ([4]; Rate 0.2500 kg/ha): 3.0"
